Holding throughout (assay type): functional
For one assay, the system named is Candida albicans. Put plainly: Antifungal activity against Candida albicans MTCC 227 after 2 to 3 days by agar well diffusion method.
The next assay deals with Escherichia coli. Put plainly: Antimicrobial activity against Escherichia coli MTCC 1650 after 24 hrs by agar well diffusion method. The settings on record: for MIC: Escherichia coli, MTCC 1650, 24 h.
For the next assay, the system named is Pseudomonas aeruginosa. Description: Antimicrobial activity against Pseudomonas aeruginosa MTCC 1688 after 24 hrs by agar well diffusion method. The following applies: for MIC: Pseudomonas aeruginosa, MTCC 1688, 24 h.
The test system of another assay is Bacillus subtilis. Description: Antimicrobial activity against Bacillus subtilis MTCC 441 after 24 hrs by agar well diffusion method. The following applies: for MIC: Bacillus subtilis, MTCC 441, 24 h.
In a further assay the test system is Staphylococcus aureus. Put plainly: Antimicrobial activity against Staphylococcus aureus MTCC 96 after 24 hrs by agar well diffusion method. The settings on record: for MIC: Staphylococcus aureus, MTCC 96, 24 h.
A further assay has as its system Aspergillus niger. Description: Antifungal activity against Aspergillus niger MTCC 1781 after 2 to 3 days by agar well diffusion method.

In brackets after ≈: the same amount, converted by molar mass.

In the case of `CC(=O)N1CCN(c2nc(Nc3ccc(C#N)nc3)nc(N3CCN(C(C)=O)CC3)n2)CC1.Cl`, the “inhibition zone (IZ)” value with Candida albicans was 14 mm; in the assay with Escherichia coli, 12 mm; in the assay on Pseudomonas aeruginosa, 10 mm; in the assay on Bacillus subtilis it was 12 mm; in the assay with Staphylococcus aureus, 12 mm; in the assay on Aspergillus niger, 14 mm. Also, the MIC against Candida albicans (Candida albicans, MTCC 227) is 25 µg/mL; in the assay on Escherichia coli it was 50 µg/mL; in the assay on Pseudomonas aeruginosa, 50 µg/mL; in the assay on Bacillus subtilis, 50 µg/mL; in the assay on Staphylococcus aureus it was 50 µg/mL; against Aspergillus niger (Aspergillus niger, MTCC 1781), 100 µg/mL.

Consider `Cl.N#Cc1ccc(Nc2nc(N3CCOCC3)nc(N3CCOCC3)n2)cn1`, for which the “inhibition zone (IZ)” value in the assay with Candida albicans was determined as 14 mm; in the assay with Escherichia coli, 12 mm; with Pseudomonas aeruginosa it was 10 mm; in the assay with Bacillus subtilis, 12 mm; with Staphylococcus aureus, 12 mm; in the assay with Aspergillus niger, 14 mm. For the same compound, the MIC was determined as 50 µg/mL against Candida albicans (Candida albicans, MTCC 227); 50 µg/mL in the assay with Escherichia coli; 50 µg/mL with Pseudomonas aeruginosa; 50 µg/mL against Bacillus subtilis; 50 µg/mL against Staphylococcus aureus; 100 µg/mL against Aspergillus niger (Aspergillus niger, MTCC 1781).

In the assay with Candida albicans, NYSTATIN had an MIC of 6.25 µg/mL and an inhibition zone (IZ) of 20 mm. In the assay on Aspergillus niger, this compound came in with an MIC of 6.25 µg/mL and an inhibition zone (IZ) of 20 mm.

Take `CN[C@@H]1[C@H](O[C@H]2[C@H](O[C@H]3[C@H](O)[C@@H](O)[C@H](N=C(N)N)[C@@H](O)[C@@H]3N=C(N)N)O[C@@H](C)[C@]2(O)C=O)O[C@@H](CO)[C@H](O)[C@H]1O` [STREPTOMYCIN]: the “inhibition zone (IZ)” value came out at 22 mm in the assay on Escherichia coli, 24 mm in the assay on Pseudomonas aeruginosa, 22 mm in the assay on Bacillus subtilis and 20 mm with Staphylococcus aureus. The MIC against Escherichia coli, against Pseudomonas aeruginosa, in the assay on Bacillus subtilis and in the assay with Staphylococcus aureus was 6.25 µg/mL (≈ 10.7 µM) each time.

`Cc1ccc(Nc2nc(Nc3ccc(C)cc3)nc(Nc3ccc(C#N)nc3)n2)cc1.Cl`: the “inhibition zone (IZ)” value is reported as 14 mm in the assay on Candida albicans; 12 mm in the assay with Escherichia coli; 10 mm with Pseudomonas aeruginosa; 12 mm in the assay on Bacillus subtilis; 12 mm with Staphylococcus aureus; 14 mm with Aspergillus niger. Moreover, the MIC stood at 25 µg/mL against Candida albicans (Candida albicans, MTCC 227); 12.5 µg/mL in the assay on Escherichia coli; 25 µg/mL against Pseudomonas aeruginosa; 25 µg/mL against Bacillus subtilis; 12.5 µg/mL in the assay on Staphylococcus aureus; 100 µg/mL with Aspergillus niger (Aspergillus niger, MTCC 1781).

Consider `Cl.N#Cc1ccc(Nc2nc(Nc3ccc(F)cc3)nc(Nc3ccc(F)cc3)n2)cn1`, for which the “inhibition zone (IZ)” value in the assay on Candida albicans came out at 12 mm; in the assay on Escherichia coli, 14 mm; with Pseudomonas aeruginosa, 12 mm; in the assay with Bacillus subtilis, 10 mm; with Staphylococcus aureus, 12 mm; with Aspergillus niger, 12 mm. In addition, the MIC amounted to 25 µg/mL with Candida albicans (Candida albicans, MTCC 227); 25 µg/mL against Escherichia coli; 50 µg/mL against Pseudomonas aeruginosa; 25 µg/mL against Bacillus subtilis; 25 µg/mL in the assay on Staphylococcus aureus; 25 µg/mL in the assay with Aspergillus niger (Aspergillus niger, MTCC 1781).

As for `Cl.N#Cc1ccc(Nc2nc(N3CCCCC3)nc(N3CCCCC3)n2)cn1`, the “inhibition zone (IZ)” value is recorded as 10 mm in the assay on Candida albicans; 14 mm with Escherichia coli; 12 mm with Pseudomonas aeruginosa; 10 mm in the assay on Bacillus subtilis; 12 mm in the assay on Staphylococcus aureus; 14 mm with Aspergillus niger. Further, the minimal inhibitory concentration (MIC) was found to be 50 µg/mL against Candida albicans (Candida albicans, MTCC 227); 25 µg/mL against Escherichia coli; 25 µg/mL in the assay on Pseudomonas aeruginosa; 50 µg/mL in the assay on Bacillus subtilis; 50 µg/mL against Staphylococcus aureus; 25 µg/mL against Aspergillus niger (Aspergillus niger, MTCC 1781).

With `Cl.N#Cc1ccc(Nc2nc(NCc3ccco3)nc(NCc3ccco3)n2)cn1`, the “inhibition zone (IZ)” value in the assay on Candida albicans came out at 12 mm; with Escherichia coli it was 14 mm; in the assay on Pseudomonas aeruginosa, 12 mm; with Bacillus subtilis, 10 mm; in the assay with Staphylococcus aureus, 12 mm; in the assay on Aspergillus niger, 12 mm. In addition, the minimum inhibitory concentration (MIC) worked out at 12.5 µg/mL in the assay with Candida albicans (Candida albicans, MTCC 227); 6.25 µg/mL in the assay on Escherichia coli; 6.25 µg/mL against Pseudomonas aeruginosa; 6.25 µg/mL against Bacillus subtilis; 6.25 µg/mL against Staphylococcus aureus; 12.5 µg/mL against Aspergillus niger (Aspergillus niger, MTCC 1781).

Take `Cl.N#Cc1ccc(Nc2nc(NC3CCCCC3)nc(NC3CCCCC3)n2)cn1`: the “inhibition zone (IZ)” value in the assay on Candida albicans was determined as 14 mm; in the assay with Escherichia coli, 12 mm; in the assay on Pseudomonas aeruginosa, 10 mm; in the assay on Bacillus subtilis, 12 mm; with Staphylococcus aureus, 12 mm; with Aspergillus niger, 14 mm. The MIC with Candida albicans (Candida albicans, MTCC 227) was 12.5 µg/mL; against Escherichia coli it was 6.25 µg/mL; in the assay on Pseudomonas aeruginosa, 6.25 µg/mL; in the assay on Bacillus subtilis, 6.25 µg/mL; with Staphylococcus aureus, 6.25 µg/mL; against Aspergillus niger (Aspergillus niger, MTCC 1781) it was 12.5 µg/mL.

As for `Cl.N#Cc1ccc(Nc2nc(Nc3cc[nH]n3)nc(Nc3cc[nH]n3)n2)cn1`, the “inhibition zone (IZ)” value was determined as 14 mm in the assay with Candida albicans; 12 mm in the assay on Escherichia coli; 14 mm in the assay with Pseudomonas aeruginosa; 10 mm in the assay on Bacillus subtilis; 12 mm in the assay with Staphylococcus aureus; 14 mm with Aspergillus niger. Further, the MIC against Candida albicans (Candida albicans, MTCC 227) was 12.5 µg/mL; in the assay on Escherichia coli it was 6.25 µg/mL; in the assay with Pseudomonas aeruginosa, 12.5 µg/mL; in the assay with Bacillus subtilis, 6.25 µg/mL; in the assay with Staphylococcus aureus, 12.5 µg/mL; with Aspergillus niger (Aspergillus niger, MTCC 1781), 12.5 µg/mL.

For the compound `Cl.N#Cc1ccc(Nc2nc(N3CCN(C(=O)c4ccccc4)CC3)nc(N3CCN(C(=O)c4ccccc4)CC3)n2)cn1`, the “inhibition zone (IZ)” value with Candida albicans is 14 mm; with Escherichia coli it was 12 mm; in the assay on Pseudomonas aeruginosa, 14 mm; in the assay with Bacillus subtilis, 10 mm; with Staphylococcus aureus, 12 mm; in the assay on Aspergillus niger, 12 mm. Moreover, the minimum inhibitory concentration (MIC) in the assay on Candida albicans (Candida albicans, MTCC 227) is 50 µg/mL; against Escherichia coli it was 25 µg/mL; in the assay on Pseudomonas aeruginosa it was 25 µg/mL; with Bacillus subtilis, 12.5 µg/mL; in the assay on Staphylococcus aureus, 12.5 µg/mL; with Aspergillus niger (Aspergillus niger, MTCC 1781), 50 µg/mL.

On to `CN(C)CCNc1nc(NCCN(C)C)nc(Nc2ccc(C#N)nc2)n1.Cl`, for which the “inhibition zone (IZ)” value stood at 14 mm in the assay with Candida albicans; 14 mm in the assay on Escherichia coli; 12 mm with Pseudomonas aeruginosa; 12 mm in the assay with Bacillus subtilis; 12 mm in the assay on Staphylococcus aureus; 12 mm with Aspergillus niger. Further, the MIC against Candida albicans (Candida albicans, MTCC 227) came to 25 µg/mL; against Escherichia coli it was 12.5 µg/mL; against Pseudomonas aeruginosa, 12.5 µg/mL; with Bacillus subtilis it was 25 µg/mL; in the assay on Staphylococcus aureus, 12.5 µg/mL; in the assay on Aspergillus niger (Aspergillus niger, MTCC 1781), 25 µg/mL.

Turning to `COCCNc1nc(NCCOC)nc(Nc2ccc(C#N)nc2)n1.Cl`, the “inhibition zone (IZ)” value with Candida albicans was 12 mm; with Escherichia coli it was 12 mm; in the assay on Pseudomonas aeruginosa it was 12 mm; with Bacillus subtilis, 12 mm; with Staphylococcus aureus, 12 mm; in the assay on Aspergillus niger, 14 mm. The minimum inhibitory concentration (MIC) against Candida albicans (Candida albicans, MTCC 227) amounted to 12.5 µg/mL; against Escherichia coli, 6.25 µg/mL; in the assay on Pseudomonas aeruginosa it was 6.25 µg/mL; with Bacillus subtilis, 6.25 µg/mL; against Staphylococcus aureus, 12.5 µg/mL; with Aspergillus niger (Aspergillus niger, MTCC 1781), 12.5 µg/mL.

For the compound `Cl.N#Cc1ccc(Nc2nc(N3CCN(c4ccccc4)CC3)nc(N3CCN(c4ccccc4)CC3)n2)cn1`, the “inhibition zone (IZ)” value with Candida albicans was 14 mm; in the assay on Escherichia coli, 12 mm; in the assay with Pseudomonas aeruginosa, 10 mm; in the assay on Bacillus subtilis, 10 mm; in the assay with Staphylococcus aureus it was 12 mm; with Aspergillus niger, 14 mm. For the same compound, the MIC against Candida albicans (Candida albicans, MTCC 227) was determined as 25 µg/mL; against Escherichia coli, 6.25 µg/mL; against Pseudomonas aeruginosa, 6.25 µg/mL; against Bacillus subtilis, 6.25 µg/mL; in the assay on Staphylococcus aureus, 6.25 µg/mL; in the assay with Aspergillus niger (Aspergillus niger, MTCC 1781), 25 µg/mL.

Turning to `Cl.N#Cc1ccc(Nc2nc(NC3CCCC3)nc(NC3CCCC3)n2)cn1`, the “inhibition zone (IZ)” value worked out at 12 mm in the assay on Candida albicans; 10 mm in the assay on Escherichia coli; 12 mm in the assay on Pseudomonas aeruginosa; 12 mm in the assay on Bacillus subtilis; 12 mm with Staphylococcus aureus; 12 mm in the assay on Aspergillus niger. Further, the minimal inhibitory concentration (MIC) turned out to be 25 µg/mL in the assay on Candida albicans (Candida albicans, MTCC 227); 6.25 µg/mL against Escherichia coli; 12.5 µg/mL in the assay with Pseudomonas aeruginosa; 6.25 µg/mL against Bacillus subtilis; 6.25 µg/mL against Staphylococcus aureus; 25 µg/mL against Aspergillus niger (Aspergillus niger, MTCC 1781).

For `Cl.N#Cc1ccc(Nc2nc(N3CCCC3)nc(N3CCCC3)n2)cn1`, the “inhibition zone (IZ)” value is reported as 12 mm in the assay with Candida albicans; 12 mm in the assay with Escherichia coli; 12 mm with Pseudomonas aeruginosa; 12 mm in the assay on Bacillus subtilis; 12 mm in the assay with Staphylococcus aureus; 14 mm in the assay on Aspergillus niger. For the same compound, the minimal inhibitory concentration (MIC) in the assay with Candida albicans (Candida albicans, MTCC 227) turned out to be 50 µg/mL; with Escherichia coli it was 50 µg/mL; with Pseudomonas aeruginosa, 100 µg/mL; against Bacillus subtilis it was 100 µg/mL; with Staphylococcus aureus it was 100 µg/mL; in the assay with Aspergillus niger (Aspergillus niger, MTCC 1781) it was 50 µg/mL.

`Cl.N#Cc1ccc(Nc2nc(N3CCNCC3)nc(N3CCNCC3)n2)cn1`: the “inhibition zone (IZ)” value with Candida albicans was 14 mm; with Escherichia coli, 12 mm; in the assay with Pseudomonas aeruginosa, 10 mm; with Bacillus subtilis, 12 mm; in the assay on Staphylococcus aureus, 12 mm; in the assay on Aspergillus niger, 14 mm. The MIC in the assay with Candida albicans (Candida albicans, MTCC 227) was found to be 25 µg/mL; against Escherichia coli, 50 µg/mL; in the assay on Pseudomonas aeruginosa, 50 µg/mL; against Bacillus subtilis, 50 µg/mL; in the assay with Staphylococcus aureus, 50 µg/mL; against Aspergillus niger (Aspergillus niger, MTCC 1781) it was 100 µg/mL.

Values taken from ChEMBL document CHEMBL2057118, “Synthesis and biological evaluation of novel 2,4,6-triazine derivatives as antimicrobial agents” (2012).
